In publication PMC4102788, “Linking off-target kinase pharmacology to the differential cellular effects observed among PARP inhibitors” (Oncotarget, 2014):
pIC50, pKi: −log10 of the molar value. “Also recorded” adds a separate entry of the source.

Experiments:
PARP-1 = target: PARP-1; design: method as in PMID 21948594, PMID 21336281; conditions: ChEMBL; cited from earlier work
S6K1 kinase = target: S6K1 kinase; design: method as in PMID 24072592; conditions: cited from earlier work
PIM1 kinase = target: PIM1 kinase; design: method as in PMID 23025350; conditions: cited from earlier work
human DYRK1A kinase = target: T1, human DYRK1A kinase (Homo sapiens, UniProt Q13627); test: Human DYRK1A kinase in vitro inhibition assay (Cerep, LANCE); assay type: biochemical
T1 construct: purchased Cerep (CRO that ran the assay) 2781 (781-dyrk1a)
Description: Evaluation of the effects of compounds on the activity of the human DYRK1a
[sequence]-amide (MBP) using a human recombinant enzyme and the
mixture is incubated for 30 min at room temperature. For control basal measurements,

human CDC2/CDK1 = target: T2, human CDC2/CDK1 (Homo sapiens, UniProt P06493); test: Human CDK1 kinase in vitro inhibition assay (Cerep, LANCE); assay type: biochemical
T2 construct: purchased Cerep (CRO that ran the assay) 2875 (781-cdc2); host or cells: insect cells
T2 sequence (P06493 whole entry): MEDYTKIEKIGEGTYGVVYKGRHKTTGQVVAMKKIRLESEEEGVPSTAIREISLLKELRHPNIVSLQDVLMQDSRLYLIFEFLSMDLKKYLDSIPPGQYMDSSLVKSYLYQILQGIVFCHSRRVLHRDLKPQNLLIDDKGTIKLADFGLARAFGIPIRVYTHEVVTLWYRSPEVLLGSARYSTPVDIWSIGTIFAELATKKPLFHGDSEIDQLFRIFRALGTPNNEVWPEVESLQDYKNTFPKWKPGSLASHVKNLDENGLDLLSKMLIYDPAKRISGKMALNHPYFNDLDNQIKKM
T2 sequence (P14635 whole entry partner): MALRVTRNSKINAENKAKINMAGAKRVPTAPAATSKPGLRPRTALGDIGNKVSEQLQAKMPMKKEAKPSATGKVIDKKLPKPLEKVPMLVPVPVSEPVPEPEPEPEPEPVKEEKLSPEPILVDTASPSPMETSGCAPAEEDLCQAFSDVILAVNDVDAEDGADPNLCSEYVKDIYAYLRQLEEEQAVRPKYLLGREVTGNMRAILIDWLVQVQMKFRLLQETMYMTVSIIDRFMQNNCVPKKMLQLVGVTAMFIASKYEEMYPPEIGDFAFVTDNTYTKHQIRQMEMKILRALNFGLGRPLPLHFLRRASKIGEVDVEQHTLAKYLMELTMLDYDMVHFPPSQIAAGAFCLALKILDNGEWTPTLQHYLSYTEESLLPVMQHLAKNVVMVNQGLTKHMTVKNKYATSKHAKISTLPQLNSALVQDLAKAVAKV
Description: All details for the CDC2/CDK1 in vitro assay can be consulted in the Cerep
Catalogue available online under references 2875 (781-cdc2):
http://www.cerep.fr/cerep/users/pages/catalog/Affiche_CondExp_Test.asp?test=2875
CDC2/CDK1 quantified by measuring the phosphorylation of
the substrate Ulight-[sequence]-amide (MBP) using a human
recombinant enzyme expressed in insect cells and the LANCE® detection method.
The test compound, reference compound or water (control) are mixed with the enzyme (2.28 ng) in a buffer containing 40 mM Hepes/Tris(pH 7.4), 0.8 mM EGTA/Tris, 8 mM MgCl2, 1.6 mM DTT and 0.008% Tween 20. Thereafter, the reaction is initiated by adding 100 nM of the
substrate Ulight-[sequence]-amide (MBP) and 10 µM ATP, and the
mixture is incubated for 15 min at room temperature. […] After 60 more min, the fluorescence transfer is
The IC50 values (concentration causing a half-maximal inhibition of control specific activity) and Hill coefficients (nH) were determined by non-linear regression analysis of the inhibition curves generated with mean replicate values using Hill equation curve fitting (Y = D + [(A – D)/(1 + (C/C50)nH)], where Y = specific activity, D = minimum specific activity, A = maximum specific activity, C = compound concentration, C50 = IC50, and nH = slope factor).

STAT3 phosphorilation = system: STAT3 phosphorilation; design: method as in PMID 22678161; conditions: at 5 µM; cited from earlier work
16 protein kinases = test: Focused in vitro kinase screening across the panel of 16 protein kinases; assay type: biochemical, human; conditions: panel of 16 kinases
Description: From these kinases, we selected the 11 that were available for screening at Cerep (www.cerep.fr). The selection included members of three different kinase groups distantly related by sequence (all having less than 20% sequence identity with PIM1), namely, CAMK (PIM2, STK17A), CMGC (DYRK1A, CDK9, HIPK2, CK2, and CDC7) and AGC (AKT3, PRKCG, PRKCI, and PKA). To this list, we added also two kinases belonging to the TK group that have been identified as biomarkers of PARP drug sensitivity and shared ligands with PIM1, namely, ABL and ALK. […] In the end, a total of 16 protein kinases were selected for a focused in vitro screening of PARP inhibitors.
(§1) Rucaparib, veliparib and olaparib were purchased from Selleckchem. Kinase in vitro assays were perfomed at Cerep (www.cerep.fr) by measuring the phosphorylation of appropriate peptide substrates by human recombinant enzymes and using FRET as a detection method (a detailed description of each kinase assay is available in online supplementary data).

[1] = 50 mg single daily dose; cited from earlier work
human CDK9 kinase = target: T3, human CDK9 kinase (Homo sapiens, UniProt P50750); test: Human CDK9 kinase in vitro inhibition assay (Cerep, LANCE); assay type: biochemical; conditions: human recombinant enzyme, 10 µM ATP
T3 construct: purchased Cerep (CRO that ran the assay) 2912 (781-cdk9); host or cells: Sf9 cells
T3 sequence (P50750 whole entry): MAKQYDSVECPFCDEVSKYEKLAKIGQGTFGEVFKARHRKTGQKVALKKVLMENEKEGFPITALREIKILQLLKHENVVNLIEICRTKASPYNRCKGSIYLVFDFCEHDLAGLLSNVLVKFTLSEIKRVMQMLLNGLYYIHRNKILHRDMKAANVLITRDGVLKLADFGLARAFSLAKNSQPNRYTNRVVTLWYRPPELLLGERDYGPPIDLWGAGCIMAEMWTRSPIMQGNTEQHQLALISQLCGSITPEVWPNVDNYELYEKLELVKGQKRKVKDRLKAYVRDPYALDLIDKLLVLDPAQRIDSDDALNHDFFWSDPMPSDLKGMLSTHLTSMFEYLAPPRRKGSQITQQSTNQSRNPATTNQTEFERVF
T3 sequence (O60563 whole entry partner): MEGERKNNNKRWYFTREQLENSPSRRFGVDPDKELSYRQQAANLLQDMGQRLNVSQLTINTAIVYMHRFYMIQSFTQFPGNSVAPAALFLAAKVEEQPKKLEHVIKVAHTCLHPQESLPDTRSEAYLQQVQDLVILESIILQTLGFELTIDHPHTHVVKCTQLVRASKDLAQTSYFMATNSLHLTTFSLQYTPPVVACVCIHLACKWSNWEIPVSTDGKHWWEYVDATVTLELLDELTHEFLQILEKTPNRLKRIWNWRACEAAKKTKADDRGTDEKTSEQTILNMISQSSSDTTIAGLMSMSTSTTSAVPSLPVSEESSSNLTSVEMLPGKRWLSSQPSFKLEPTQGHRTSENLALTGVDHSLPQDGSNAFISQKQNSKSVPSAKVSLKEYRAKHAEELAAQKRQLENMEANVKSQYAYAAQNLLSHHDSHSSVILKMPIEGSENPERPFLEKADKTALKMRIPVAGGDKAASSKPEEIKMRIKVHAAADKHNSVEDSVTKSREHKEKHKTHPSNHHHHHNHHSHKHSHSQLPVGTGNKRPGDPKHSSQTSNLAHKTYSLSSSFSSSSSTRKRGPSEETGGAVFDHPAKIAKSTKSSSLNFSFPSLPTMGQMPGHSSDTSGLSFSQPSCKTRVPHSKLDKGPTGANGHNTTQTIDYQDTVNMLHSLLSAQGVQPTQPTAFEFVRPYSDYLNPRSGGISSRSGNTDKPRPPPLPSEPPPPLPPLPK
Description: as §1
Human CDK9 kinase in vitro inhibition assay
All details for the CDK9 in vitro assay can be consulted in the Cerep Catalogue available online under references 2912 (781-cdk9): http://www.cerep.fr/cerep/users/pages/catalog/Affiche_CondExp_Test.asp?test=2912 Evaluation of the effects of compounds on the activity of the human CDK9 quantified by measuring the phosphorylation of the substrate Ulight- […]
mixture is incubated for 90 min at room temperature. […] After 60 more min, the fluorescence transfer is measured at λex=337 nm, λem=620 nm and λem=665 nm using a microplate reader (Envision, Perkin Elmer). The enzyme activity is determined by dividing the signal measured at λem=665 nm by that measured at λem=620 nm (ratio). The results are expressed as a percent inhibition of the control enzyme activity. The standard inhibitory reference compound is staurosporine, which is tested in each experiment at several concentrations to obtain an inhibition curve from which its IC50 value is calculated. […]

human PIM1 kinase = target: T4, human PIM1 kinase (Homo sapiens, UniProt P11309); test: Human Pim1 kinase in vitro inhibition assay (Cerep, LANCE/FRET); assay type: biochemical; conditions: human recombinant enzyme, 30 µM ATP
T4 construct: purchased Cerep (CRO that ran the assay) 2919 (745-P1); host or cells: insect cells
T4 sequence (P11309 whole entry): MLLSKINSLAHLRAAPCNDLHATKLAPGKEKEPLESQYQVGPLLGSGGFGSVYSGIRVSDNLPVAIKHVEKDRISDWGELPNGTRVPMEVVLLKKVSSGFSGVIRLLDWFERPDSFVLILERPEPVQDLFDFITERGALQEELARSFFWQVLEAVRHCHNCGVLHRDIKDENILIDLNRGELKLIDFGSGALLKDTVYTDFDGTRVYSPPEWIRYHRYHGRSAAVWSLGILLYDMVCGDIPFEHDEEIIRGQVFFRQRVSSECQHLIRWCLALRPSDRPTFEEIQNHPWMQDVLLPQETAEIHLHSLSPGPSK
Description: Human Pim1 and Pim2 kinase in vitro inhibition assays
Evaluation of the effects of compounds on the activity of the human Pim1 and Pim2 kinases were quantified by measuring the phosphorylation of the substrate Ulight-
CREBtide ([sequence]) using either Pim1 or Pim2 human recombinant enzymes expressed in insect cells and the LANCE® detection method 18,19.
The test compound, reference compound or water (control) are mixed with either Pim1 (4.08 ng) or Pim2 (6.36 ng) enzymes in a buffer containing 40 mM Hepes/Tris (pH 7.4), 0.8 mM EGTA/Tris, 8 mM MgCl2, 1.6 mM DTT and 0.008% Tween 20.
Thereafter, the reaction is initiated by adding 25 nM of the substrate Ulight-CREBtide
([sequence]) and ATP (30 µM for Pim1 and 3 µM for Pim2), and the mixture is incubated for 60 min at room temperature. […] After 60 more min, the fluorescence transfer is measured at λex=337 nm, λem=620 nm and λem=665 nm using a microplate reader (Envision, Perkin Elmer).

## O=C1CCCN1Cc1ccc2c(c1)[nH]c(=O)c1cccn12 [CHEMBL539474]
PARP-1
  pKi: 6.16

## NC(=O)c1cccc2[nH]c(-c3ccc(O)cc3)nc12 [Nu1085]
S6K1 kinase
  pIC50: 6.25

## CN(C)CC(=O)Nc1ccc2[nH]c(=O)c3ccccc3c2c1 [PJ34]
PIM1 kinase
  pIC50: 5.43

## O=C(c1cc(Cc2n[nH]c(=O)c3ccccc23)ccc1F)N1CCN(C(=O)C2CC2)CC1 [olaparib]
Human DYRK1A kinase
  inhibition of DYRK1A (in words): not inhibited
Human CDC2/CDK1
  inhibition of CDK1 (in words): not inhibited
STAT3 phosphorilation
  effect on STAT3 phosphorilation: do not affect the phosphorilation state of STAT3
16 protein kinases
  affinity for the 16 protein kinases tested: does not inhibit any; also recorded: no relevant affinities

## C[C@]1(c2nc3c(C(N)=O)cccc3[nH]2)CCCN1 [veliparib]
[1]
  highest peak plasma concentration: around 1 µM
Human CDK9 kinase
  pIC50: 5.09
Human DYRK1A kinase
  inhibition of DYRK1A (in words): not inhibited
Human CDC2/CDK1
  inhibition of CDK1 (in words): not inhibited
STAT3 phosphorilation
  effect on STAT3 phosphorilation: do not affect the phosphorilation state of STAT3
Human PIM1 kinase
  pIC50: 4.77
